How the values were obtained:
PDK1 [1] = experiment: Yeast two-hybrid interaction with PDK1; assay type: binding, human; conditions: PDK1 L155 mutants
PDK1 [2] = target: T1, PDK1 (Homo sapiens, UniProt O15530); experiment: Yeast two-hybrid interaction with PDK1; assay type: binding; set-up: expressed in transfected cells; host or cells: Saccharomyces cerevisiae strain Y190; conditions: wild type PDK1
T1 sequence (O15530 1-556): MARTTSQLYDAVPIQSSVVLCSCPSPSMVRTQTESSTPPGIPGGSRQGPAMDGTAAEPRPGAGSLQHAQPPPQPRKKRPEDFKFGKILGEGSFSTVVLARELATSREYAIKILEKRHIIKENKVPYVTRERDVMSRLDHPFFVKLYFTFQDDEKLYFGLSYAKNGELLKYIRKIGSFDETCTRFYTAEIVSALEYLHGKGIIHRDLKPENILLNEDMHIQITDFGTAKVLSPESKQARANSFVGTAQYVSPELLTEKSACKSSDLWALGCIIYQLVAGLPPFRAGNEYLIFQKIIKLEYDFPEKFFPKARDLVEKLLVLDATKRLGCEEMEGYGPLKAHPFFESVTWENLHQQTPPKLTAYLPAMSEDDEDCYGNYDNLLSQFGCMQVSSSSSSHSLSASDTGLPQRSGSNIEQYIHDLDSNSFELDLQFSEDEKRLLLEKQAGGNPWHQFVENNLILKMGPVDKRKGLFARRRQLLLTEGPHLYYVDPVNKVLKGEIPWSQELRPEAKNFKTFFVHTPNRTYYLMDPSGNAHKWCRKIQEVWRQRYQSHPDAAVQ

How did the “two-hybrid interaction with L155S, L155D or L155E mutants of PDK1” value (PDK1 [1]) turn out when “PKACT: C-terminal fragment of PKA composed of residues 129-350” was run?
Its value is “greatly reduced”.

And the “two-hybrid interaction with full length PDK1” value (PDK1 [2])?
The value was “positive interaction”.

— US20080009025A1, “PROTEIN KINASE REGULATION” (priority 1999, published 2008)
